Measured values: patent US20080305040A1, “In Vivo or in Vitro Method For Detecting Amyloid Deposits Having at Least One Amyloidogenic Protein” (UNIVERSITY OF PITTSBURGH, priority 2005, published 2008)

Tested on: amyloid deposits in heart tissue, lung tissue, bladder tissue, lymph node tissue and bone from a subject with AL amyloidosis
Assay: Imaging of tissues from AL amyloidosis subject: staining of paraffin sections, viewed with a UV filter set
Format: binding
Settings: 100 nM stain, 60 min, deparaffinized paraffin sections from a subject with AL amyloidosis, FIG. 1
Experimental: Paraffin sections of heart, lung, bladder, lymph node and bone from a subject with AL amyloidosis were deparaffinized in xylene and stained with 100 nM X-34 [Styren et al. J Histochem Cytochem 48:1223-1232 (2000)] in 20% ethanol/80% 150 mM Tris Buffer (pH 7.4) or 100 nM 2-(4′-methylaminophenyl)-6-cyanobenzothiazole (6-CN-BTA-1) [Mathis et al. J Med Chem 46:2740-2754 (2003)] in PBS (pH 7.4) for 60 min followed by a brief, 5 second wash in water followed by coverslipping and viewing with an UV filter set (FIG. 1).

binding to amyloid deposits in heart tissue, lung tissue, bladder tissue, lymph node tissue and bone | SMILES
binding | O=C(O)c1cc(/C=C/c2ccc(/C=C/c3ccc(O)c(C(=O)O)c3)cc2)ccc1O [Example X-34]
binding | CNc1ccc(-c2nc3ccc(C#N)cc3s2)cc1 [Example 6-CN-BTA-1, 2-(4′-methylaminophenyl)-6-cyanobenzothiazole]
